Source: patent publication US20260216180A1, “QUINOLINE DERIVATIVE COMPOUNDS OR PHARMACEUTICALLY ACCEPTABLE SALT THEREOF, PREPARATION METHOD THEREFOR AND USE THEREOF” (JIANGSU CAREPHAR PHARMACEUTICAL CO.,LTD., priority 2023, published 2026)
Read-outs that look alike come from different tables or passages of the source.

Tests used:
[1] = test system: IL-6; experiment: Macrophage IL-6 secretion after LPS (ELISA); format: cell-based; details: Bone marrow macrophage, compared to 0 μM, mouse bone marrow macrophages, 200 ng/ml LPS, 6 hours, read-out: Inhibition rate of IL-6 at 10 μM concentration
Experimental: (§1) Pharmacological Activity Test: Regulatory Effect of Quinoline Derivatives on Macrophage IL-6 and TNF-α Secretion
(§2) Mouse bone marrow cells were isolated from the femur and tibia bone marrow of […] mice of 6-8 week old raised under SPF conditions and inoculated in 6-well plates at a density of 1.5*10^6 cells/well/2 mL. 50 ng/mL M-CSF was added to each well and the cells were cultured in a CO2 incubator for 3 days. On the third day, the culture medium was replaced with fresh medium containing 100 ng/mL M-CSF and the culture was continued for 3 days. On the 6th day, the supernatant was removed and the cells were washed once with DPBS. After adding 1 mL of DPBS, the macrophages were harvested using a cell scraper, centrifuged at 400 g for 10 min, and the supernatant was discarded. The cells were resuspended in fresh culture medium containing 50 ng/mL M-CSF, inoculated in a 96-well plate at a density of 2*10^4 cells/well/200 μL, and cultured in a CO2 incubator overnight. 0, 3, 5, […] of the test compound were added to each well (wherein well 0 contains 0.1% DMSO) respectively and incubate in a CO2 incubator for 1 hour. Then 200 ng/ml LPS was added and the cell supernatant was collected after 6 hours of co-culture. ELISA kits were used to detect the secretion levels of IL-6 and TNF-α.

[2] = test system: TNF-α; experiment: Macrophage TNF-α secretion after LPS (ELISA); format: cell-based; details: Bone marrow macrophage, compared to 0 μM, mouse bone marrow macrophages, 200 ng/ml LPS, 6 hours, read-out: Inhibition rate of TNFα at 10 μM concentration
Experimental: as §1, §2

[3] = biological target: T1, CYP1A2 (Homo sapiens, UniProt P05177); experiment: CYP enzyme inhibition, human liver microsomes, CYP1A2; format: in vitro ADME; details: probe substrate Phenacetin; for IC50: read-out: IC50 CYP 1A2
T1 construct: Commercially available mixed human liver microsomes were used; from tissue; host or cells: pooled human liver microsomes
T1 sequence (P05177 1-516): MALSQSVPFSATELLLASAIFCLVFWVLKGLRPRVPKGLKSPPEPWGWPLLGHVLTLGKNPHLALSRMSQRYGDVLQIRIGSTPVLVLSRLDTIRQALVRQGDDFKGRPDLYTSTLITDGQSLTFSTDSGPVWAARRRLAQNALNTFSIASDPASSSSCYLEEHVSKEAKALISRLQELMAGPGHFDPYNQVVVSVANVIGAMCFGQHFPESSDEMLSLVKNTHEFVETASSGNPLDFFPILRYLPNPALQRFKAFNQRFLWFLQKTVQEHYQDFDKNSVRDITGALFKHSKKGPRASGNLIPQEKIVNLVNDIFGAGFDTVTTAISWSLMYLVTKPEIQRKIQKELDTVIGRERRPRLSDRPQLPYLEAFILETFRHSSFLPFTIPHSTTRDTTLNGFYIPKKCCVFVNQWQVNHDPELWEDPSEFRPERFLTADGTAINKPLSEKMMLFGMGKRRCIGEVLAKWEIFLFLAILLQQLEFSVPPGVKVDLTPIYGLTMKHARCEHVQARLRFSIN
Experimental: (§3) Commercially available mixed human liver microsomes were used, with the liver microsome concentrations of diclofenac, dextromethorphan, and midazolam being 0.1 mg/mL; and the liver microsome concentrations of phenacetin, bupropion, amodiaquine, mephenytoin, and testosterone being 0.2 mg/mL. Probe substrate, specific inhibitor and test compound (ABX464, compound 18) were diluted to the corresponding concentration of working solution for use. A mixed solution containing liver microsomes, MgCl2, substrate, […] inhibitor, and the test compound was prepared. After the incubation, 600 μL of ice-cold ACN working solution containing IS was added to terminate the reaction, and the mixture was centrifuged and used for LC-MS/MS detection. [table] At different concentrations of the test compound or positive inhibitor, the percentage of remaining activity is determined by the ratio of the amount of characteristic metabolites of the probe substrate generated to the corresponding amount generated in the absence of the test compound or positive inhibitor. If a significant decrease in the amount of metabolite production is found at the highest concentration setting point, the half inhibitory concentration (IC50) will be calculated using the log(inhibitor) vs. response—Variable slope formula of GraphPad Prism software: Y=Bottom+(Top−Bottom)/(1+10^((Log IC50−X)*Hillslope)) • X: Log (test compound or positive inhibitor concentration); • Y: Remaining activity percentage; • Top and Bottom: refer to the theoretical maximum and minimum remaining activity percentages respectively; and • Hillslope: slope coefficient or slope. If there is no significant decrease in metabolite production at the highest concentration setting point (percentage of enzyme remaining activity […]), the half inhibitory concentration (IC50) cannot be accurately calculated, and the reported IC50 is greater than the highest concentration tested.

[4] = biological target: T2, CYP2C8 (Homo sapiens, UniProt P10632); experiment: CYP enzyme inhibition, human liver microsomes, CYP2C8; format: in vitro ADME; details: probe substrate Amodiaquine, read-out: IC50 CYP 2C8
T2 construct: Commercially available mixed human liver microsomes were used; from tissue; host or cells: pooled human liver microsomes
T2 sequence (P10632 1-490): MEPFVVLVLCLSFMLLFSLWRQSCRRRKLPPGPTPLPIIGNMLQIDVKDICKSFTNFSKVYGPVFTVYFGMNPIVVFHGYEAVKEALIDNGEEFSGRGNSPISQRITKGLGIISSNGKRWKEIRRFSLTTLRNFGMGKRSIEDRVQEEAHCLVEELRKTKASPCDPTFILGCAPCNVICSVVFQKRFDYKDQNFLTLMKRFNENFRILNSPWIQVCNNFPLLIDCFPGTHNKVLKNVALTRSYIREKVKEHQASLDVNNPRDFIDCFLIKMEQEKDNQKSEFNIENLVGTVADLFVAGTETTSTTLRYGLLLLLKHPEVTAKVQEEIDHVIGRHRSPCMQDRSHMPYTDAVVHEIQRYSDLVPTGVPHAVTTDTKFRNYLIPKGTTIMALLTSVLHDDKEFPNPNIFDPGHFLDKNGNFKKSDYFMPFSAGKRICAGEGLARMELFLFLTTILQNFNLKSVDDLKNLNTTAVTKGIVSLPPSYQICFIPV
Experimental: (§4) Commercially available mixed human liver microsomes were used, with the liver microsome concentrations of diclofenac, dextromethorphan, and midazolam being 0.1 mg/mL; and the liver microsome concentrations of phenacetin, bupropion, amodiaquine, mephenytoin, and testosterone being 0.2 mg/mL. Probe substrate, specific inhibitor and test compound (ABX464, compound 18) were diluted to the corresponding concentration of working solution for use. A mixed solution containing liver microsomes, MgCl2, substrate, […] inhibitor, and the test compound was prepared. After the incubation, 600 μL of ice-cold ACN working solution containing IS was added to terminate the reaction, and the mixture was centrifuged and used for LC-MS/MS detection. [table] At different concentrations of the test compound or positive inhibitor, the percentage of remaining activity is determined by the ratio of the amount of characteristic metabolites of the probe substrate generated to the corresponding amount generated in the absence of the test compound or positive inhibitor. […]

[5] = biological target: T3, CYP2C9 (Homo sapiens, UniProt P11712); experiment: CYP enzyme inhibition, human liver microsomes, CYP2C9; format: in vitro ADME; details: probe substrate Diclofenac, read-out: IC50 CYP 2C9
T3 construct: Commercially available mixed human liver microsomes were used; from tissue; host or cells: pooled human liver microsomes
T3 sequence (P11712 whole entry): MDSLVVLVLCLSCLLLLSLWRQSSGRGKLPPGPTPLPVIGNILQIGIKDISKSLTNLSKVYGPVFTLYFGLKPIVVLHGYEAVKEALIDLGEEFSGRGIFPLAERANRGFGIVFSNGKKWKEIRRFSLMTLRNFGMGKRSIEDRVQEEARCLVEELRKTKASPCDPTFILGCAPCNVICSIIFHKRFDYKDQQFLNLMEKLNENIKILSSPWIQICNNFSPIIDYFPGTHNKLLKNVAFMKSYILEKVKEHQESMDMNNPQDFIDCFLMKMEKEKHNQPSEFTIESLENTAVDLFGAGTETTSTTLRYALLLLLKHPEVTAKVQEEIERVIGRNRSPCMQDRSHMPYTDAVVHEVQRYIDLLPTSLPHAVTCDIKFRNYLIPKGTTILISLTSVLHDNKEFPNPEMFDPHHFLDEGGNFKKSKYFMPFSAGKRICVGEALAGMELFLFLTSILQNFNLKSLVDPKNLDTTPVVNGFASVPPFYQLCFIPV
Experimental: as §4

[6] = biological target: T4, CYP2C19 (Homo sapiens, UniProt P33261); experiment: CYP enzyme inhibition, human liver microsomes, CYP2C19; format: in vitro ADME; details: probe substrate S-Mephenytoin, read-out: IC50 CYP 2C19
T4 construct: Commercially available mixed human liver microsomes were used; from tissue; host or cells: pooled human liver microsomes
T4 sequence (P33261 whole entry): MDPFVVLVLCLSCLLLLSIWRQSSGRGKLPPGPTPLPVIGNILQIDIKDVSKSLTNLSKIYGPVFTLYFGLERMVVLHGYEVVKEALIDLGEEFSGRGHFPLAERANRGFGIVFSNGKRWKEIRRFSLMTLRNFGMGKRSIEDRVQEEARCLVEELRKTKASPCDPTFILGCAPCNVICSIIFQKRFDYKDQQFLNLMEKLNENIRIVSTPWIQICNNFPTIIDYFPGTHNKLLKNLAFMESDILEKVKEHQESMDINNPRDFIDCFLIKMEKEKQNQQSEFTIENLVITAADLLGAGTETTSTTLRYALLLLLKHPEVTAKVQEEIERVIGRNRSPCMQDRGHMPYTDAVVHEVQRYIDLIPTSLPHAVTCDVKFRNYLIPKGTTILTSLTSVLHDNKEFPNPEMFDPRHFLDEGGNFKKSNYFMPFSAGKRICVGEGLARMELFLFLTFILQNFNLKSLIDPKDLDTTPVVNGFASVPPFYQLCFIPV
Experimental: as §4

[7] = biological target: T5, CYP3A4 (Homo sapiens, UniProt P08684); experiment: CYP enzyme inhibition, human liver microsomes, CYP3A4; format: in vitro ADME
T5 construct: Commercially available mixed human liver microsomes were used; from tissue; host or cells: pooled human liver microsomes
T5 sequence (P08684 whole entry): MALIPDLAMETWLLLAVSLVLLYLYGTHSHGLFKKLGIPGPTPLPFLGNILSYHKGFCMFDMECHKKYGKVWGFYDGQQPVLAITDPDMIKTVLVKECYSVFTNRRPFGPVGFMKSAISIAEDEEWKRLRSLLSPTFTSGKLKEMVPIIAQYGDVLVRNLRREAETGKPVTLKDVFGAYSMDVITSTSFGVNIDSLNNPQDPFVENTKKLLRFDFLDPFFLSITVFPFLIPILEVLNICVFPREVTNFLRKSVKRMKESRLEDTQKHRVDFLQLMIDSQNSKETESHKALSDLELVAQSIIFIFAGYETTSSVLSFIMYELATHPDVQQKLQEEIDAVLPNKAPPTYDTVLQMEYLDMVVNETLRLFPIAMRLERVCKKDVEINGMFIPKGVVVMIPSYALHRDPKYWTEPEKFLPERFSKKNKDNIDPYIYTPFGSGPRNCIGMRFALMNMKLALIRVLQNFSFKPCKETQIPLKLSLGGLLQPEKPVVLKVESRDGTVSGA
Experimental: as §3

[8] = probe substrate Midazolam, read-out: IC50 CYP 3A4-Midazolam
[9] = probe substrate Testosterone, read-out: IC50 CYP 3A4-Testosterone

| IC50 [3] [µM] | IC50 [4] [µM] | IC50 [5] [µM] | IC50 [6] [µM] | IC50 [7, 8] [µM] | IC50 [7, 9] [µM] | IC50 CYP 1A2 [3] | SMILES | inhibition at 10 µM [1] [%] | inhibition at 10 µM [2] [%] |
| --- | --- | --- | --- | --- | --- | --- | --- | --- | --- |
| 0.097 | 35.9 | 15.1 | 4.92 | 73 | > 100 | – | FC(F)(F)Oc1ccc(Nc2ccc3cccc(Cl)c3n2)cc1 [ABX464, reference compound] | 61 | 80 |
| 21.6 | 40.4 | 20.2 | 5.69 | > 100 | > 100 | significantly superior to ABX464 | Fc1cc(Cl)c2nc(Nc3ccc(C4(C(F)(F)F)CC4)cc3)ccc2c1 [Compound 18, 8-chloro-6-fluoro-N-(4-(1-(trifluoromethyl)cyclopropyl)phenyl)quinolin-2-amine] | 88 | 94 |
